# Assay results from ChEMBL document CHEMBL2203150, “CXCR3 antagonists: quaternary ammonium salts equipped with biphenyl- and polycycloaliphatic-anchors” (Bioorg Med Chem, 2011).
# Experiments:
# [1] = molecular target: T1, C-X-C chemokine receptor type 3 (Homo sapiens, UniProt P49682); experiment: Displacement of [125I]-CXCL10 from human CXCR3 expressed in HEK293 cells; format: cell-based
# T1 sequence (P49682 whole entry): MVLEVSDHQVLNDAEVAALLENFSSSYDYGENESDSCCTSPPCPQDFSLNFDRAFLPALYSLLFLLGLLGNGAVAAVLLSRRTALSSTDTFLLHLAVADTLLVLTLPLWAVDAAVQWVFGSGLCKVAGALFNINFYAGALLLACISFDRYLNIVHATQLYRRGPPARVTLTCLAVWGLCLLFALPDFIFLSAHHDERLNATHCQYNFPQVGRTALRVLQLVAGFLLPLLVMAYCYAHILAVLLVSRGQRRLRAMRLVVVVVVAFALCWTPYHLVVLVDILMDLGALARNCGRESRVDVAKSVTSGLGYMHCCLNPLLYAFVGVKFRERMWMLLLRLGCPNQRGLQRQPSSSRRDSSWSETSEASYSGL
# [2] = molecular target: T1, C-X-C chemokine receptor type 3; experiment: Displacement of [125I]-CXCL11 from human CXCR3 expressed in HEK293 cells; format: cell-based
# [3] = molecular target: T2, C-X-C chemokine receptor type 3 (Homo sapiens) (UniProt P49682); experiment: Antagonist activity at human CXCR3 expressed in HEK293T cells co-expressing Galphaqi5 assessed as inhibition of CXCL10-induced [3H]-inositolphosphates levels; format: functional, cell-based; details: HEK-293T
# T2 sequence (whole entry): T1 sequence (P49682 whole entry)
smiles,measurement,setting,value
CC1(C)[C@H]2CC=C(C[N+](C)(C)Cc3ccc(-c4ccsc4)cc3)[C@@H]1C2,Ki,[1],0.2 µM
same,Ki,[2],0.316 µM
same,pKb,[3],6.4
CC1(C)[C@H]2CC=C(C[N+](C)(C)Cc3cccc(-c4ccccc4)c3)[C@@H]1C2,Ki,[1],3.16 µM
C[N+](C)(CCC12CC3CC(CC(C3)C1)C2)Cc1ccc(I)cc1,Ki,[1],0.631 µM
Cc1cccc(-c2ccc(C[N+](C)(C)CC3=CC[C@H]4C[C@@H]3C4(C)C)cc2)c1,Ki,[1],0.398 µM
N=C(Nc1ccc(I)cc1)NC1C2CC3CC(C2)CC1C3 (stereo not drawn),Ki,[1],3.98 µM
same,Ki,[2],3.98 µM
CC1(C)[C@H]2CC=C(C[N+](C)(C)Cc3ccc(Cl)c(Cl)c3)[C@@H]1C2,Ki,[1],0.398 µM
CN(C/C1=C/CCCCCC1)Cc1ccc(I)cc1 (mixture of isomers),Ki,[1],7.94 µM
C[N+](C)(C/C1=C/CCCCCC1)Cc1ccc(I)cc1 (mixture of isomers),Ki,[1],1 µM
CN(CC1=CC[C@H]2C[C@@H]1C2(C)C)Cc1ccc2c3ccccc3n(C)c2c1,Ki,[1],> 0.316 µM
CN(Cc1ccc(I)cc1)CC1C2CC3CC(C2)CC1C3 (stereo not drawn),Ki,[1],7.94 µM
CN(CC1=CC[C@H]2C[C@@H]1C2(C)C)Cc1ccc(-c2ccoc2)cc1,Ki,[1],6.31 µM
CC1(C)[C@H]2CC=C(C[N+](C)(C)Cc3cccc(I)c3)[C@@H]1C2,Ki,[1],2 µM
CC1(C)[C@H]2CC=C(C[N+](C)(C)Cc3ccc(-c4ccccc4F)cc3)[C@@H]1C2,Ki,[1],0.631 µM
CC1(C)[C@H]2CC=C(C[N+](C)(C)Cc3ccccc3I)[C@@H]1C2,Ki,[1],1.58 µM
CC1(C)[C@H]2CC=C(C[N+](C)(C)Cc3ccccc3)[C@@H]1C2,Ki,[1],3.98 µM
CN(CC1=CC[C@H]2C[C@@H]1C2(C)C)Cc1ccc(-c2cccc(F)c2)cc1,Ki,[1],2.51 µM
CN(CC1=CC[C@H]2C[C@@H]1C2(C)C)Cc1ccc(-c2cccc(C(F)(F)F)c2)cc1,Ki,[1],> 0.316 µM
CC1(C)[C@H]2CC=C(C[N+](C)(C)Cc3ccc(-c4cccc(O)c4)cc3)[C@@H]1C2,Ki,[1],1.58 µM
CC[N+](C)(CC1=CC[C@H]2C[C@@H]1C2(C)C)Cc1ccc(I)cc1 (stereo partly drawn),Ki,[1],0.631 µM
CCOc1ccc(-n2c([C@@H](C)N(Cc3cccnc3)C(=O)Cc3ccc(OC(F)(F)F)cc3)nc3ncccc3c2=O)cc1,inhibition,[3],Dose-dependent effect
same,pKb,[3],8
CN(CC1=CC[C@H]2C[C@@H]1C2(C)C)Cc1cccc(-c2ccccc2)c1,Ki,[1],> 0.316 µM
CN(CC1=CC[C@H]2C[C@@H]1C2(C)C)Cc1ccc(-c2ccccc2)cc1,Ki,[1],3.16 µM
CC1(C)[C@H]2CC=C(C[N+](C)(C)Cc3ccc4c(c3)Cc3ccccc3-4)[C@@H]1C2,Ki,[1],0.501 µM
CN(CC1=CC[C@H]2C[C@@H]1C2(C)C)Cc1ccc2c(c1)Cc1ccccc1-2,Ki,[1],> 0.316 µM
CN(CC1=CC[C@H]2C[C@@H]1C2(C)C)Cc1ccc(-c2cccc([N+](=O)[O-])c2)cc1,Ki,[1],2 µM
CC1(C)[C@H]2CC=C(C[N+](C)(C)Cc3ccc(-c4cccc(F)c4)cc3)[C@@H]1C2,Ki,[1],0.316 µM
CN(CC1=CC[C@H]2C[C@@H]1C2(C)C)Cc1ccc(I)cc1,Ki,[1],3.16 µM
CN(CCC12CC3CC(CC(C3)C1)C2)Cc1ccc(I)cc1,Ki,[1],5.01 µM
CC1(C)[C@H]2CC=C(C[N+]3(C)CCc4ccccc4C3)[C@@H]1C2 (stereo partly drawn),Ki,[1],2.51 µM
CC1(C)[C@H]2CC=C(CN3CCc4ccccc4C3)[C@@H]1C2,Ki,[1],12.6 µM
CC1(C)[C@H]2CC=C(C[N+](C)(C)Cc3ccc(-c4cccc(C(F)(F)F)c4)cc3)[C@@H]1C2,Ki,[1],0.501 µM
CC1(C)[C@H]2CC=C(C[N+](C)(C)Cc3ccc(-c4ccoc4)cc3)[C@@H]1C2,Ki,[1],0.251 µM
CC1(C)[C@H]2CC=C(C[N+](C)(C)Cc3ccc(F)cc3)[C@@H]1C2,Ki,[1],1.26 µM
CN(CC1=CC[C@H]2C[C@@H]1C2(C)C)Cc1ccc(-c2cccc(O)c2)cc1,Ki,[1],> 0.316 µM
CC1(C)[C@@H]2CC[C@@]1(C)C(C[N+](C)(C)Cc1ccc(I)cc1)C2 (mixture of isomers),Ki,[1],1.58 µM
CC1(C)[C@H]2CC=C(C[N+](C)(C)Cc3ccc(-c4ccc(C(F)(F)F)cc4)cc3)[C@@H]1C2,Ki,[1],1.26 µM
CN(CC1=CC[C@H]2C[C@@H]1C2(C)C)Cc1ccccc1I,Ki,[1],5.01 µM
CN(CC1=CC[C@H]2C[C@@H]1C2(C)C)Cc1ccc(Cl)c(Cl)c1,Ki,[1],3.16 µM
CN(CC1=CC[C@H]2C[C@@H]1C2(C)C)Cc1ccccc1,Ki,[1],15.8 µM
CCN(CC1=CC[C@H]2C[C@@H]1C2(C)C)Cc1ccc(I)cc1,Ki,[1],3.98 µM
CN(CC1=CC[C@H]2C[C@@H]1C2(C)C)Cc1cccc(I)c1,Ki,[1],7.94 µM
CC1(C)[C@H]2CC=C(C[N+](C)(C)Cc3ccc(-c4cccc(Cl)c4)cc3)[C@@H]1C2,Ki,[1],0.126 µM
same,Ki,[2],0.316 µM
same,pKb,[3],6.3
C[N+](C)(Cc1ccc(I)cc1)CC12CC3CC(CC(C3)C1)C2,Ki,[1],2 µM
CC1(C)[C@H]2CC=C(C[N+](C)(C)Cc3ccc(-c4ccccc4)cc3)[C@@H]1C2,Ki,[1],0.316 µM
CC1(C)[C@H]2CC=C(C[N+](C)(C)Cc3ccc4oc5ccccc5c4c3)[C@@H]1C2,Ki,[1],0.501 µM
CC1(C)[C@H]2CC=C(C[N+](C)(C)CCc3ccc(Cl)cc3)[C@@H]1C2,Ki,[1],1 µM
CN(CC1=CC[C@H]2C[C@@H]1C2(C)C)Cc1ccc(-c2cccc(Cl)c2)cc1,Ki,[1],3.98 µM
CN(CC1=CC[C@H]2C[C@@H]1C2(C)C)Cc1ccc(-c2cccc(N)c2)cc1,Ki,[1],6.31 µM
CC(=O)c1cccc(-c2ccc(CN(C)CC3=CC[C@H]4C[C@@H]3C4(C)C)cc2)c1,Ki,[1],> 0.316 µM
COC(=O)c1cccc(-c2ccc(C[N+](C)(C)CC3=CC[C@H]4C[C@@H]3C4(C)C)cc2)c1,Ki,[1],1 µM
CN(CC1=CC[C@H]2C[C@@H]1C2(C)C)Cc1ccc(-c2ccsc2)cc1,Ki,[1],3.98 µM
COc1ccc(-c2ccc(C[N+](C)(C)CC3=CC[C@H]4C[C@@H]3C4(C)C)cc2)cc1OC,Ki,[1],0.501 µM
CN(CC1=CC[C@H]2C[C@@H]1C2(C)C)Cc1ccc(-c2cc(Cl)cc(Cl)c2)cc1,Ki,[1],> 0.316 µM
CN(CC1=CC[C@H]2C[C@@H]1C2(C)C)Cc1ccc(Br)cc1,Ki,[1],3.16 µM
Ic1ccc(CNCC2C3CC4CC(C3)CC2C4)cc1 (stereo not drawn),Ki,[1],2.51 µM
CN(CC1=CC[C@H]2C[C@@H]1C2(C)C)Cc1ccc(Cl)cc1,Ki,[1],2.51 µM
COC(=O)c1cccc(-c2ccc(CN(C)CC3=CC[C@H]4C[C@@H]3C4(C)C)cc2)c1,Ki,[1],> 0.316 µM
Cc1cccc(-c2ccc(CN(C)CC3=CC[C@H]4C[C@@H]3C4(C)C)cc2)c1,Ki,[1],> 0.316 µM
CC1(C)[C@H]2CC=C(C[N+](C)(C)Cc3ccc(-c4ccc(Cl)cc4)cc3)[C@@H]1C2,Ki,[1],0.501 µM
CN(Cc1ccc(I)cc1)CC1C[C@H]2CC[C@]1(C)C2(C)C (mixture of isomers),Ki,[1],7.94 µM
CN(CC1=CC[C@H]2C[C@@H]1C2(C)C)Cc1ccc(-c2ccc(Cl)cc2)cc1,Ki,[1],> 0.316 µM
CC1(C)[C@H]2CC=C(C[N+](C)(C)Cc3ccc(Oc4ccccc4)cc3)[C@@H]1C2,Ki,[1],2 µM
CC1(C)[C@H]2CC=C(C[N+](C)(C)Cc3ccc(-c4cccc([N+](=O)[O-])c4)cc3)[C@@H]1C2,Ki,[1],0.2 µM
CN(CC1=CC[C@H]2C[C@@H]1C2(C)C)Cc1ccc(-c2ccccc2F)cc1,Ki,[1],> 0.316 µM
Cn1c2ccccc2c2ccc(C[N+](C)(C)CC3=CC[C@H]4C[C@@H]3C4(C)C)cc21,Ki,[1],1 µM
COc1ccc(-c2ccc(CN(C)CC3=CC[C@H]4C[C@@H]3C4(C)C)cc2)cc1OC,Ki,[1],> 0.316 µM
CN(CC1=CC[C@H]2C[C@@H]1C2(C)C)Cc1ccc(Oc2ccccc2)cc1,Ki,[1],> 0.316 µM
CC(=O)c1cccc(-c2ccc(C[N+](C)(C)CC3=CC[C@H]4C[C@@H]3C4(C)C)cc2)c1,Ki,[1],0.631 µM
CC1(C)[C@H]2CC=C(C[N+](C)(C)Cc3ccc(-c4cc(Cl)cc(Cl)c4)cc3)[C@@H]1C2,Ki,[1],0.398 µM
CN(CC1=CC[C@H]2C[C@@H]1C2(C)C)Cc1ccc(F)cc1,Ki,[1],6.31 µM
CC1(C)[C@H]2CC=C(C[N+](C)(C)Cc3ccc(I)cc3)[C@@H]1C2,Ki,[1],0.251 µM
same,Ki,[2],0.398 µM
same,pKb,[3],6.6
CN(CC1=CC[C@H]2C[C@@H]1C2(C)C)Cc1ccc2oc3ccccc3c2c1,Ki,[1],> 0.316 µM
CC1(C)[C@H]2CC=C(C[N+](C)(C)Cc3ccc(-c4cccc(N)c4)cc3)[C@@H]1C2,Ki,[1],3.16 µM
CN(CCc1ccc(Cl)cc1)CC1=CC[C@H]2C[C@@H]1C2(C)C,Ki,[1],5.01 µM
CC1(C)[C@H]2CC=C(C[N+](C)(C)Cc3ccc(Br)cc3)[C@@H]1C2,Ki,[1],0.316 µM
C[N+](C)(Cc1ccc(I)cc1)CC1C2CC3CC(C2)CC1C3 (stereo not drawn),Ki,[1],0.794 µM
CC1(C)[C@H]2CC=C(C[N+](C)(C)Cc3ccc(Cl)cc3)[C@@H]1C2,Ki,[1],0.2 µM
same,Ki,[2],0.501 µM
same,pKb,[3],6.3
CN(CC1=CC[C@H]2C[C@@H]1C2(C)C)Cc1ccc(-c2ccc(C(F)(F)F)cc2)cc1,Ki,[1],> 0.316 µM
